In the test the target is Cathepsin S (Homo sapiens, UniProt P25774). The experiment in a line: Inhibition Assay: 5 μL of a human cathepsin S enzyme (R&D1183-CY-010) was added to a 96-well plate so as to be 20 ng/well. Next, 10-fold dilution of the test compound (a 10 mM DMSO solution) was serially performed with a buffer solution for assay (a solution of 50 mM sodium methoxide, 250 mM sodium chloride and 5 mM dithiothreitol (DTT), adjusted to pH=4.5 with 1 N hydrochloric acid) six times such that the final concentration becomes 0.1 nM to 10 μM then, 20 μL of each of the solutions was added to the wells (the final DMSO concentration was 0.1%), and 25 μL of synthetic substrate VVR-AMC (3211-V manufactured by PEPTIDE […], INC.) was added thereto such that the final concentration becomes 40 μM, thereby starting a enzyme reaction. A fluorescence intensity (an excitation wavelength: 380 nm and a fluorescent wavelength: 460 nm) was measured at 37° C. for 10 minutes immediately after the start of the reaction using a fluorescence spectrophotometer (SPECTRA MAX GEMINI, manu.
Sequence of Cathepsin S (P25774 whole entry): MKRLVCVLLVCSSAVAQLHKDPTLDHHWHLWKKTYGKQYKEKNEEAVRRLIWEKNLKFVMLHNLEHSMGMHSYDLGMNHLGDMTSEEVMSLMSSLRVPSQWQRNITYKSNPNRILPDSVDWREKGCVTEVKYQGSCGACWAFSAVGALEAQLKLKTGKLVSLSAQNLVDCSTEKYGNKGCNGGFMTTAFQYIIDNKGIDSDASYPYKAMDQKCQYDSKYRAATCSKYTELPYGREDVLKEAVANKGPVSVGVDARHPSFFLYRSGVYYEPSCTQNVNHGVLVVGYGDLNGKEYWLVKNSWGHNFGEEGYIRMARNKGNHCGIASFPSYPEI

Each structure is given as a SMILES string.

One may read the IC50 as the concentration needed to halve the response being measured. Molecule `Cn1ccc2c(-c3cnc(OCC4CCN(C(=O)C5CCN(CC(C)(C)O)CC5)CC4)c(C(F)(F)F)c3)nc(C#N)nc21` came in with an IC50 of 2.1 nM. `Cn1cnc2c(-c3ccc(OCCC4CCN(CC(=O)N5CCC(F)(F)C5)CC4)c(C(F)(F)F)c3)nc(C#N)nc21` displayed an IC50 of 2.4 nM. Take `CC(C)N1CCC[C@H]1C(=O)N1CCC(CCOc2ncc(-c3nc(C#N)nc4c3ncn4C)cc2C(F)(F)F)CC1`: inhibition was half-maximal at 2.1 nM (IC50). The figure for `CN(C)C(=O)CN1CCC(CCOc2ncc(-c3nc(C#N)nc4c3ccn4C)cc2C(F)(F)F)CC1` is 2.2 nM; for `Cn1cnc2c(-c3ccc(OCCC4CCN(CC(=O)N5CC[C@H](F)C5)CC4)c(C(F)(F)F)c3)nc(C#N)nc21` it is 1.7 nM; for `Cn1cnc2c(-c3cnc(OCCC4CCN(C5CCC5)CC4)c(C(F)(F)F)c3)nc(C#N)nc21` it is 2 nM. Molecule `CN1CCC[C@@H]1C(=O)N1CCC(CCOc2ncc(-c3nc(C#N)nc4c3ncn4C)cc2C(F)(F)F)CC1` came in with an IC50 of 1 nM.

For `CN1CCC[C@@H]1C(=O)N1CC[C@@H](OCCOc2ncc(-c3nc(C#N)nc4c3ccn4C)cc2C(F)(F)F)C1`, half-maximal inhibition (IC50) was put at 2.4 nM.

The record behind these values is ChEMBL document CHEMBL3886685, “Nitrogen-containing bicyclic aromatic heterocyclic compound” (2016).
